Where “and” joins values, the source holds several entries; their conditions need not be identical. Equal entries are not always repeated. Where two headings read alike, the source gives them in different places.
How the values were obtained:
[1] = Persistence over time, blood samples (Example 18); assay type: in vivo, mice
Experimental: (§1) Blood samples from each mouse were collected at each time point for the pharmacokinetics tests. For 6 h after administrating of all tested drugs, and after testing their WRL on the hot plate, half the mice (n=3) of each group were sacrificed, and the liver and brain of each animal were taken for pharmacokinetics tests. From the remaining mice, blood samples were acquired at 12 h after administration for pharmacokinetics tests. At 24 h after drug administration, and after checking the WRL again, second half of each group of mice were sacrificed, and the liver and brain of each animal were taken for pharmacokinetics tests.

[2] = Pharmacokinetics, liver samples (Example 17); assay type: in vivo, mice; details: for concentration at 24 h / concentration at 5 h: mouse, liver; for concentration at 24 h: ip; for concentration at 5 h: po
[3] = Persistence over time, brain samples postmortem (Example 18); assay type: in vivo, mice
Experimental: as §1
(§2) All the results of the brain and liver samples, which were taken postmortem 6 h or 24 h after administration (n=3) are summarized in Tables 12-13.

mice = experiment: Hot plate assay, withdrawal reflex latency (WRL); assay type: in vivo; details: for Hot plate Time: per animal
[4] = Pharmacokinetics, blood samples (Example 17); details: for concentration at 0.5 h: mouse, blood, ip, Component in the blood, label = analyte
Experimental: The pharmacokinetics of 9-CD3-(8-D2)-THC compared to natural THC was evaluated using both intraperitoneal i.p. injection and an oral gavage administration for each material. The mice were divided into four groups containing 6 mice (24 mice total). For each group of mice, a blood sample was withdrawn at baseline (t=0), and half-hour intervals (t=0.5, 2 and 5 h) after administration of the drug. Three mice, half of each group, were euthanized with CO2 after 5 h and their organs (brain and liver) were collected. From the second half of each group, another blood sample was withdrawn 24 h after administration, and then these animals were euthanized and the brain and liver were collected for analysis.

[5] = Persistence over time, liver samples postmortem (Example 18); assay type: in vivo, mice; details: mouse, liver, oral, read-out: Average results for 3 mice (Table 13, liver); for concentration at 6 h: died at 6 h; for concentration at 24 h: died at 24 h, number in brackets = mice with a value
Experimental: as §1, §2

[6] = Body temperature by rectal thermometer (hypothermia)
[7] = 8 mg/Kg oral, t = 6 h, listed as THC-d5

[2H]C([2H])([2H])C1=C[C@H]2c3c(O)cc(CCCCC)cc3OC(C)(C)[C@@H]2CC1([2H])[2H] [9-CD3-(8-D2)-THC]
Average results, blood samples ([1]; 4 mg/kg administration, Time 3 h, label = analyte): 1.44 (4/4) ng/mL | Average results, blood samples ([1]; 8 mg/kg administration, Time 12 h (3 mice), label = analyte): 0.15 (1/1) ng/mL | metabolic stability compared to THC ([1]; conclusion from mouse blood, brain and liver samples): better metabolic stability than THC | concentration at 0.5 h ([1]; mouse, blood, oral, 4 mg/kg administration of THC or THC-d5, Time 0.5 h, label = analyte): 10.4 ng/mL | concentration at 0.5 h ([1]; mouse, blood, oral, 8 mg/kg administration of THC or THC-d5, Time 0.5 h, label = analyte): 22.5 ng/mL | concentration at 3 h ([1]; mouse, blood, oral, 8 mg/kg administration, Time 3 h, label = analyte): 7.27 ng/mL | concentration at 6 h ([1]; mouse, blood, oral, 8 mg/kg administration, Time 6 h, label = analyte): 1.81 ng/mL | average liver concentration, times more than THC ([2]; 5 h after oral gavage administration): 1.59 times | average liver concentration, times more than THC ([2]; 24 h after i.p. administration): 1.40 times | concentration at 24 h ([2]; 24 h after i.p. administration, n=3, read-out: average liver concentration): 10.7 ng/g | concentration at 24 h ([2]; 24 h after i.p. injection of THC or THC-d5, label = analyte, n=3, read-out: Component in the liver, Average): 10.7 ng/mL | concentration at 24 h ([2]; 24 h after i.p. injection of THC or THC-d5, label = analyte, read-out: Component in the liver, mouse 1): 12.4 ng/mL | concentration at 24 h ([2]; 24 h after i.p. injection of THC or THC-d5, label = analyte, read-out: Component in the liver, mouse 2): 15 ng/mL | concentration at 24 h ([2]; 24 h after i.p. injection of THC or THC-d5, label = analyte, read-out: Component in the liver, mouse 3): 4.64 ng/mL | concentration at 5 h ([2]; 5 h after oral gavage administration of THC or THC-d5, label = analyte, n=3, read-out: Component in the liver, Average): 5.99 ng/mL | concentration at 5 h ([2]; 5 h after oral gavage administration of THC or THC-d5, label = analyte, read-out: Component in the liver, mouse 1): 5.57 ng/mL | concentration at 5 h ([2]; 5 h after oral gavage administration of THC or THC-d5, label = analyte, read-out: Component in the liver, mouse 2): 6.28 ng/mL | concentration at 5 h ([2]; 5 h after oral gavage administration of THC or THC-d5, label = analyte, read-out: Component in the liver, mouse 3): 6.13 ng/mL | concentration at 5 h ([2]; 5 h after oral gavage administration, n=3, read-out: average liver concentration): 5.99 ng/g | presence in the brain ([3]; 24 h after administration, highest concentration of 8 mg/kg): evidence for the synthetic material in the brain | concentration at 6 h ([3]; mouse, brain, oral, 8 mg/kg administered, died at 6 h, number in brackets = mice with a value, read-out: Average results for 3 mice - brain samples): 48 ng/g | Hot plate Avg. 6 mice (mice; 2 mg/Kg oral, t = 0.5 h): 9.52 s | Hot plate Time (mice; 2 mg/Kg oral, t = 0.5 h, listed as THC-d5): 9.4 s and 9.3 s and 8.9 s and 10.9 s and 12.0 s and 6.6 s | Hot plate Avg. 6 mice (mice; 2 mg/Kg oral, t = 3 h): 10.97 s | Hot plate Time (mice; 2 mg/Kg oral, t = 3 h, listed as THC-d5): 7.2 s and 12.1 s and 8.5 s and 19.3 s and 13.1 s and 5.6 s | Hot plate Avg. 6 mice (mice; 2 mg/Kg oral, t = 6 h): 10.07 s | Hot plate Time (mice; 2 mg/Kg oral, t = 6 h, listed as THC-d5): 9.3 s and 14.5 s and 4.5 s and 15.8 s and 8.9 s and 7.4 s | Hot plate Avg. 3 mice (mice; 2 mg/Kg oral, t = 24 h): 8.3 s | Hot plate Time (mice; 2 mg/Kg oral, t = 24 h, listed as THC-d5): 7.9 s and 9.5 s and 7.5 s | increase in the WRL compared to baseline (mice; 2 mg/kg, 0.5 h): 3% | change in average WRL compared to baseline (mice; 2 mg/kg, 3 h): +19% | change in average WRL compared to baseline (mice; 2 mg/kg, 6 h): +9% | Hot plate Avg. 6 mice (mice; 4 mg/Kg oral, t = 0.5 h): 14.03 s | Hot plate Time (mice; 4 mg/Kg oral, t = 0.5 h, listed as THC-d5): 19.2 s and 10.3 s and 13.0 s and 9.5 s and 15.8 s and 16.4 s | Hot plate Avg. 6 mice (mice; 4 mg/Kg oral, t = 3 h): 13.77 s | Hot plate Time (mice; 4 mg/Kg oral, t = 3 h, listed as THC-d5): 17.5 s and 11.8 s and 12.1 s and 9.2 s and 12.5 s and 19.5 s | Hot plate Avg. 6 mice (mice; 4 mg/Kg oral, t = 6 h): 15.38 s | Hot plate Time (mice; 4 mg/Kg oral, t = 6 h, listed as THC-d5): 8.7 s and 19.9 s and 12.1 s and 8.3 s and 22.5 s and 20.8 s | Hot plate Avg. 3 mice (mice; 4 mg/Kg oral, t = 24 h): 14.27 s | Hot plate Time (mice; 4 mg/Kg oral, t = 24 h, listed as THC-d5): 5.2 s and 21.5 s and 16.1 s | increase in the WRL compared to baseline (mice; 4 mg/kg, 0.5 h): 68% | change in average WRL compared to baseline (mice; 4 mg/kg, 3 h): +65% | change in average WRL compared to baseline (mice; 4 mg/kg, 6 h): +85% | Hot plate Avg. 6 mice (mice; 8 mg/Kg oral, t = 0.5 h): 15.42 s | Hot plate Time (mice; 8 mg/Kg oral, t = 0.5 h, cut-off 30 s, listed as THC-d5): 19.9 s and 24.5 s and 11.1 s and 17.5 s and 10.1 s and 9.4 s | Hot plate Avg. 6 mice (mice; 8 mg/Kg oral, t = 3 h): 22.1 s | Hot plate Time (mice; 8 mg/Kg oral, t = 3 h, cut-off 30 s, listed as THC-d5): 30.0 sec. (3×) and 6.0 sec. and 26.2 sec. and 10.4 sec. | Hot plate Avg. 6 mice (mice; 8 mg/Kg oral, t = 3 h, listed as THC-d5): 22.10 s | Hot plate Avg. 6 mice (mice; 8 mg/Kg oral, t = 6 h): 8.4 s | Hot plate Time (mice; [7]): 6.4 s and 9.8 s and 11.5 s and 7.1 s and 13.4 s and 2.3 s | Hot plate Avg. 6 mice (mice; [7]): 8.42 s | Hot plate Avg. 3 mice (mice; 8 mg/Kg oral, t = 24 h): 20.8 s | animal outcome printed in the hot plate Time column (mice; 8 mg/Kg oral, t = 24 h, animal 20): Died | Hot plate Time (mice; 8 mg/Kg oral, t = 24 h, cut-off 30 s, listed as THC-d5): 30.0 s and 11.2 s | Hot plate Avg. 3 mice (mice; 8 mg/Kg oral, t = 24 h, listed as THC-d5): 20.6 s | analgesic effect compared to natural THC and morphine (mice; 8 mg/kg oral, up to 24 h after administration): stronger and longer lasting analgesic effect | average increase in WRL compared to baseline (t=0) (mice; 8 mg/kg, 0.5 h): 67.6% | change in average WRL compared to t=0 at baseline (mice; 8 mg/kg, 3 h): 140% | average blood concentration, times higher than THC ([4]; 0.5 h after i.p. administration): 1.87 times | concentration at 0.5 h ([4]; Average, 0.5 h after i.p. injection of THC or THC-d5, n=6 (THC-d5 n=5)): 110 ng/mL | concentration at 0.5 h ([4]; mouse 1, 0.5 h after i.p. injection of THC or THC-d5): 183 ng/mL | concentration at 0.5 h ([4]; mouse 2, 0.5 h after i.p. injection of THC or THC-d5): 93.8 ng/mL | concentration at 0.5 h ([4]; mouse 4, 0.5 h after i.p. injection of THC or THC-d5): 141 ng/mL | concentration at 0.5 h ([4]; mouse 5, 0.5 h after i.p. injection of THC or THC-d5): 74.1 ng/mL | concentration at 0.5 h ([4]; mouse 6, 0.5 h after i.p. injection of THC or THC-d5): 58.9 ng/mL | concentration at 6 h ([5]; 2 mg/kg administered): 3.31 ng/g | concentration at 24 h ([5]; 2 mg/kg administered): 0.75 ng/g | concentration at 6 h ([5]; 4 mg/kg administered): 16.1 ng/g | concentration at 6 h ([5]; 8 mg/kg administered): 57.8 ng/g | concentration at 24 h ([5]; 8 mg/kg administered): 1.64 ng/g | time of strongest effect on body temperature after drug administration ([6]; high concentration of 8 mg/kg oral): 3 h | hypothermia effect (body temperature) ([6]; medium concentration of 4 mg/kg oral): very clear hypothermia effect | Body temperature, Avg. change compared to t = 0, at t = 3 h ([6]; mice, avg. of 6 mice, 8 mg/kg (groups C+D), t = 3 h after administration): −2.6 °C | Animal status in the Temp. column at t = 24 h ([6]; mice, group D, 8 mg/kg, single animal, t = 24 h): Died

Source: patent publication US20230331690A1, “THC DERIVATIVES, ORAL DOSAGE FORMS COMPRISING SAME, USES THEREOF FOR TREATING DISEASES AND DISORDERS AND SYNTHESIS THEREOF” (BAR-ILAN UNIVERSITY, priority 2020, published 2023)
